Results from a melting point compilation (Tetko et al.; mined from patent text by program, amines drawn as free bases though some values may be those of a salt).

melting point [°C]	Structure (SMILES)
138 to 140	COc1ccc2c(c1)S(=O)(=O)N(C(OC(=O)c1sccc1Cl)C(C)C)C2=O (configuration not stated)
182 to 184	COc1cc(C2c3cc4c(cc3C(NC3=CC(=O)N(Cc5ccc(F)cc5)C3=O)C3COC(=O)C23)OCO4)cc(OC)c1O[Si](C)(C)C(C)(C)C (configuration not stated)
128 to 130	O=C1C(CCO)Oc2ccccc2N1Cc1cccc([N+](=O)[O-])c1 (configuration not stated)
128 to 130	COc1cc(C=C[N+](=O)[O-])c2c(c1OC)CCC2
54 to 56	CC(C)(C)c1cc(C(=O)CBr)cc2c1OCC2(C)C
60 to 65	Nc1nc2c(s1)CCN(CC=Cc1ccc3[nH]ccc3c1)CC2
102 to 104	COc1ccc2c3c(cnc2c1)CCCC3O[Si](C)(C)C(C)(C)C (configuration not stated)
92 to 94	CC1(C)Cc2cc(Cl)cc(Cl)c2C=[N+]1[O-]
86	COC(=O)c1cc(OCC=C(Cl)Cl)cc(Cl)c1O
122 to 125	COc1ccccc1CNc1cccnc1-c1ccccc1
78 to 80	Cc1ccc(C2CCN(C(=O)CCC(=O)c3ccc4c(c3)CN(C(C)C)CC4)CC2)cc1
57	Cc1cc(N)c(F)cc1Br
147 to 149	COc1cccc(S(=O)(=O)N2c3cc(F)ccc3-c3ccc(F)cc3C2C)c1 (configuration not stated)
204 to 205	COc1cc(Cc2cnc(N)nc2N)cc(Br)c1OC
49 to 51	COc1c(C)cnc(CO)c1C
173 to 174	Cc1ccc(C)c(CN(c2ncnc3c2cnn3C2CCCO2)C2CCCC2)c1 (configuration not stated)
> 350	COC(=O)Oc1cc2c(c(O)c1C)C(=O)c1c(OC)c3c(c(O)c1C2=O)-c1c(cc2cnn(-c4ccccc4)c(=O)c2c1O)CC3
129 to 132	COc1ccc2c(c1OC)CCN(Cc1ccccc1)Cc1cc3c(cc1C=C2)OCO3
127 to 128	COc1ccc(-c2nc(C(N)(C(F)(F)F)C(F)(F)F)[nH]c2-c2ccc(OC)cc2)cc1
192 to 196	O=C1CC(=O)CC(c2ccc(Cl)cc2Cl)C1
73.5 to 74.5	CC1(C)OC(=O)C2=C(CCCCCC2)O1
164	Cc1cc2c(cc1N(C)C=O)N1CCN=C1S2
103 to 105	CC(=O)c1ccc(-c2ccc(Cl)cc2)c([N+](=O)[O-])c1
168 to 170	COc1cc2c(cc1OC)C(=O)C(c1ccc3c(c1)OCO3)CC2 (configuration not stated)
237 to 238	Cc1cc2[nH]c(C)nc(NCCN3CCOCC3)c-2n1
87 to 89	CC(=O)OCC1CC(OC(C)=O)C(n2cc(C(Cl)=CI)c(=O)[nH]c2=O)O1 (configuration not stated)

The next lines start with the molecule.

Structure (SMILES)	melting point [°C]
Nc1c(-c2ccccc2)nn2c1ccc1ccccc12	255 to 258
Cc1ccc(C(=S)NN)cc1	140 to 142
O=C1CCC(N2Cc3cc(CNC(=O)Nc4ccc(Cl)c(-c5nc6ccccc6[nH]5)c4)ccc3C2=O)C(=O)N1 (configuration not stated)	275 to 277
CN(C)c1ccc(C(=O)CC(=O)C(C)(C)C)cc1	61.5 to 61.8
O=S(=O)(NCC1CCC(NCC2CCc3ccccc3C2)CC1)c1ccc2ccccc2c1 (configuration not stated)	114 to 115
Oc1nc2ccc3nsnc3c2nc1O	> 300
O=C(c1ccccn1)c1cnn2c(-c3cccc(NC(=O)C4CC4)c3)ccnc12	214 to 215
CC(C)N(CCN1C(=O)/C(=N/NC(=O)NC2CCCCC2)c2cc(Br)ccc21)C(C)C	155 to 156
O=C(Nc1ccc(OC(F)(F)F)c(Br)c1)C(F)(F)F	64 to 66
C=CC(=O)OCc1c(Br)c(Br)c(Br)c(COC(=O)C=C)c1Br	105 to 108
CC(C)Oc1n[nH]c(=O)n1C1CC1	146 to 147
CCCCCCC1=CC(O)(C(Br)Br)N(CCCC)C1=O (configuration not stated)	85 to 86
O=C(Nc1nc(C(F)(F)F)c(I)s1)c1cccs1	184 to 185
CNc1nc(N)nc(-c2ccc(-c3ccccc3)cc2)n1	237 to 238
Cc1sc(CCc2ccc(CCCC3OC(=O)NC3=O)cc2)nc1-c1ccccc1 (configuration not stated)	111 to 112
Cc1nc2c(OCc3c(Cl)ccc(S(=O)(=O)N4CCC[C@H]4C(=O)NCCCNC(=O)c4ccc(C(N)=NO)cc4)c3Cl)cccn2c1Cl	155
Cc1nc2c(OCc3c(Cl)ccc(S(=O)(=O)N4CCC[C@H]4C(=O)NCc4ccc(C=NN)cc4)c3Cl)cccn2c1Br	124
Cc1cc(-c2cccs2)nc(Nc2ccc(C(C)C)cc2Br)n1	98 to 101
N#CCCn1cnc([N+](=O)[O-])c1	112 to 113
O=C1CCC(Cc2ccccc2)CC1	40 to 44
CCN1C(C(=O)Nc2ccccc2)=C(O)c2ccc3ccccc3c2S1(=O)=O	245 to 247
CCN(CC)C(=O)c1ccc(S(=O)(=O)N(CC)CC)o1	56.4
CC(C)P1(=O)c2ccccc2CN1c1ccc(Cl)cc1 (configuration not stated)	172 to 174

Structure (SMILES)	melting point [°C]
CC(C)(N)c1ccc(-c2nc(Nc3ccc(F)c(Cl)c3)ncc2C#N)cc1	237
CCCCCCCCNC(=O)Nc1ccccc1C(=O)NCC1CCN(C(c2ccccc2)c2ccccc2)CC1	155 to 157
O=C(OCc1ccccc1)c1cc(Br)c(OCc2ccccc2)cc1OCc1ccccc1	74 to 76
NS(=O)(=O)c1cc(C(=O)NN(c2ccccc2)C2CCCCC2)ccc1Cl	216 to 217
CSc1ccccc1C(=O)Nc1ccc(C(=O)N2Cc3ccccc3Cc3ccccc32)cc1	222 to 225
OCc1ccc(-c2cccc(C(F)(F)F)c2)o1	45
CC(CO)Nc1cc(Oc2nn(C)c(C(F)(F)F)c2Cl)ccc1N (configuration not stated)	110 to 112
CN1CCN(c2cncc(Cl)n2)CC1=O	122 to 123
COC(=O)c1cccc([N+](=O)[O-])c1NCc1ccc(-c2ccccc2-c2nnnn2Cc2ccccc2)cc1	115 to 117
Cc1ccc(S(=O)(=O)N2CCC[C@H]2C(=O)N[C@@H](Cc2ccc(OCCCN(C)Cc3ccccc3)cc2)C(=O)O)cc1	87 to 90
CNS(=O)(=O)Cc1ccc(NN=CCCC#N)cc1	124 to 125
Nc1cc(C(=O)O)cc(S(N)(=O)=O)c1Nc1cccc(C(F)(F)F)c1	273 to 274
CCN(CC)C(=O)c1ccccc1C1CC1c1ccccc1 (configuration not stated)	52 to 53
CC1(c2ccc(S(=O)(=O)Cl)cc2)Cc2cc(OCC(=O)O)c(Cl)c(Cl)c2C1=O (configuration not stated)	209 to 210
O=C(OC1CCCCC1)c1ncn2c1[C@@H]1CCN1C(=O)c1c(I)cccc1-2	124 to 125
CCc1cc(OCc2ccccc2)ccc1C(=O)NNC(=O)Cc1cccc(O)c1	190 to 191
COc1ccc(-n2c(=O)[nH]c3cc(Cl)cc(Cl)c3c2=O)cc1	294 to 296
O=[N+]([O-])c1ccc(SC2SCC(O)C(O)C2O)cc1 (configuration not stated)	168
O=C(O)c1cc(S(=O)(=O)N2CCC(CO)CC2)ccc1Cl	185 to 187
CN(C)N=C(O)c1cc(C(=N)O)c(C(=O)O)cc1C(=O)O	293 to 295
O=c1[nH]c(NCCSCc2nccs2)nnc1Cc1cccnc1	158 to 159
CC1(C)CC(c2c[nH]c(-c3ccc(F)cc3)c2-c2ccncc2)CC(C)(C)N1	242 to 243
Cc1ccccc1Cn1cccc1C(=O)CC(=O)C(=O)O	176 to 178
